Measurements published in paper PMC7144530 (The Journal of Experimental Medicine, 2020).

System: CD8 T cells (CD4-depleted splenocytes)
Experiment: IFN-gamma ELISpot of CD8 T cells from mice immunized with mutant SLP + adjuvant
Format: in vivo, mouse
Conditions: long peptide ELISpot, immunized vs control; positivity needs effect size ≥2

## IYEFDYHLYGQNITMIMTSVSGHL [Mutation C-117]
  fold-change of IFN-gamma spot counts after vaccination: 1.94
